Assay results from patent publication US20240366598A1, “GLUCOSE-DEPENDENT INSULINOTROPIC POLYPEPTIDE RECEPTOR ANTAGONISTS AND USES THEREOF” (Pfizer Inc., priority 2023, published 2024).
Where a name gives a salt, the structure may show the parent alone.

Molecular target: T1, human Glucose-dependent Insulinotropic Polypeptide Receptor (hGIPR) (Homo sapiens, UniProt P48546)
T1 sequence (P48546 22-466): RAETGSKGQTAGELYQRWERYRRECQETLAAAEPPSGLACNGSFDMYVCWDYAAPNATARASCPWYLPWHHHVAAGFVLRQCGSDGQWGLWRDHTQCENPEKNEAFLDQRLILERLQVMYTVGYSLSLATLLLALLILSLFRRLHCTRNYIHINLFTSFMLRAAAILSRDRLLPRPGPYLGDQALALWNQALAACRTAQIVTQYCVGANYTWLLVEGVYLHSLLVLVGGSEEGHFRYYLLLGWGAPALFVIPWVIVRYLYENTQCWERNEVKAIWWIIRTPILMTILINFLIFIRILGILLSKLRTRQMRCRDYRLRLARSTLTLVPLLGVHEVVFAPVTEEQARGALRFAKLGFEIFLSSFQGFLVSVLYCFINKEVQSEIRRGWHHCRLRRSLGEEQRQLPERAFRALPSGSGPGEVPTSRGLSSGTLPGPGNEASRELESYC
Experiment: Functional in vitro GIPR antagonist potency assay (cAMP HTRF, CHO-K1 cells stably expressing hGIPR, hGIP stimulation at about EC80)
Type: cell-based
Conditions: geometric mean, hGIP at estimated EC80, examples marked ^2: overall geometric mean of multiple forms (including salts) tested
How it was run: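 CHO-K1 cells expressing hGIPR (2,000 per well) in HBSS/HEPES/0.1% BSA with 200 μM IBMX were preincubated 2 h at 37 °C with an 11-point compound series (0.5% DMSO). hGIP at about EC80 was then added for 30 min, and cAMP was read by HTRF (665/620 nm). Data were normalized between hGIP alone and full antagonism by a reference antagonist at 80 μM.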

| SMILES | IC50 |
| --- | --- |
| CC(C)c1ccc(NC(=O)N2CCC[C@@H]2C(=O)Nc2ccc(-c3ccc(C(=O)O)cc3)cc2)c(Cl)c1 [Example 135, 4′-[(1-{[2-chloro-4-(propan-2-yl)phenyl]carbamoyl}-D-prolyl)amino][1,1′-biphenyl]-4-carboxylic acid] | 52 nM |
| O=C(O)c1ccc(-c2ccc(NC(=O)[C@H]3CCCN3C(=O)NCc3ccc(C4CC4)cc3)cc2)cc1 [Example 136, 4′-[(1-{[(4-cyclopropylphenyl)methyl]carbamoyl}-D-prolyl)amino][1,1′-biphenyl]-4-carboxylic acid] | 7.8 nM |
| CC(C)Cc1ccc(CNC(=O)N2CCC[C@@H]2C(=O)Nc2ccc(-c3ccc(C(=O)O)cc3)cc2)cc1 [Example 137, 4′-{[1-{{[4-(2-methylpropyl)phenyl]methyl}carbamoyl)-D-prolyl]amino}[1,1′-biphenyl]-4-carboxylic acid] | 9.8 nM |
| O=C(O)c1ccc(-c2ccc(NC(=O)[C@H]3CCCN3C(=O)NCc3cc(F)c(Cl)cc3F)cc2)cc1 [Example 138, 4′-[(1-{[(4-chloro-2,5-difluorophenyl)methyl]carbamoyl}-D-prolyl)amino][1,1′-biphenyl]-4-carboxylic acid] | 42 nM |
| O=C(O)c1ccc(-c2ccc(NC(=O)[C@H]3CCCN3C(=O)NCc3ccc(C(F)(F)F)cc3Cl)cc2)cc1 [Example 139, 4′-{[1-({[2-chloro-4-(trifluoromethyl)phenyl]methyl}carbamoyl)-D-prolyl]amino}[1,1′-biphenyl]-4-carboxylic acid] | 93 nM |
| O=C(O)c1ccc(-c2ccc(NC(=O)[C@H]3CCCN3C(=O)Nc3ccc(C4CC4)cc3F)cc2)cc1 [Example 140, 4′-({1-[(4-cyclopropyl-2-fluorophenyl)carbamoyl]-D-prolyl}amino)[1,1′-biphenyl]-4-carboxylic acid] | 67 nM |
| O=C(O)c1ccc(-c2ccc(NC(=O)[C@H]3CCCN3C(=O)NCc3ccc(C(F)F)cc3)cc2)cc1 [Example 141, 4′-{[1-({[4-(difluoromethyl)phenyl]methyl}carbamoyl)-D-prolyl]amino}[1,1′-biphenyl]-4-carboxylic acid] | 97 nM |
| Cc1cc(C2CC2)ccc1NC(=O)N1CCC[C@@H]1C(=O)Nc1ccc(-c2ccc(C(=O)O)cc2)cc1 [Example 142, 4′-({1-[(4-cyclopropyl-2-methylphenyl)carbamoyl]-D-prolyl}amino)[1,1′-biphenyl]-4-carboxylic acid] | 130 nM |
| COc1cc(NC(=O)N2CCC[C@@H]2C(=O)Nc2ccc(-c3ccc(C(=O)O)cc3)cc2)ccc1C(F)(F)F [Example 143, 4′-[(1-{[3-methoxy-4-(trifluoromethyl)phenyl]carbamoyl}-D-prolyl)amino][1,1′-biphenyl]-4-carboxylic acid] | 35 nM |
| Cc1cc(NC(=O)N2CCC[C@@H]2C(=O)Nc2ccc(-c3ccc(C(=O)O)cc3)cc2)ccc1C1CC1 [Example 144, 4′-({1-[(4-cyclopropyl-3-methylphenyl)carbamoyl]-D-prolyl}amino)[1,1′-biphenyl]-4-carboxylic acid] | 6.1 nM |
| Cc1cc(NC(=O)N2CCC[C@@H]2C(=O)Nc2ccc(-c3ccc(C(=O)O)cc3)cc2)cnc1C(C)C [Example 145, 4′-[(1-{[5-methyl-6-(propan-2-yl)pyridin-3-yl]carbamoyl}-D-prolyl)amino][1,1′-biphenyl]-4-carboxylic acid, trifluoroacetate salt] | 70 nM |
| Cc1cc(NC(=O)N2CCC[C@@H]2C(=O)Nc2ccc(-c3ccc(C(=O)O)cc3)cc2)ncc1C(C)C [Example 146, 4′-[(1-{[4-methyl-5-(propan-2-yl)pyridin-2-yl]carbamoyl}-D-prolyl)amino][1,1′-biphenyl]-4-carboxylic acid, trifluoroacetate salt] | 9.7 nM |
| CC(c1ccc(NC(=O)N2CCC[C@@H]2C(=O)Nc2ccc(-c3ccc(C(=O)O)cc3)cc2)cc1)C(F)(F)F (stereo partly drawn) [Example 147, 4′-[(1-{[4-(1,1,1-trifluoropropan-2-yl)phenyl]carbamoyl}-D-prolyl)amino][1,1′-biphenyl]-4-carboxylic acid] | 13 nM |
| CC(C)c1ccc(NC(=O)N2CCC[C@@H]2C(=O)Nc2ccc(-c3cccc(C(N)=O)c3)cc2)cc1 [Example 148, (2R)-N^2-(3′-carbamoyl[1,1′-biphenyl]-4-yl)-N^1-[4-(propan-2-yl)phenyl]pyrrolidine-1,2-dicarboxamide] | 240 nM |
| O=C(O)c1ccc(-c2ccc(NC(=O)[C@H]3CCCN3C(=O)Nc3ccc(C4CC4)c(F)c3)cc2)cc1 [Example 149, 4′-({1-[(4-cyclopropyl-3-fluorophenyl)carbamoyl]-D-prolyl}amino)[1,1′-biphenyl]-4-carboxylic acid] | 21 nM |
| Cc1cc(NC(=O)[C@H]2CCCN2C(=O)Nc2ccc(C(C)C)cc2)cnc1-c1ccc(C(=O)O)cc1 [Example 150, 4-{3-methyl-5-[(1-{[4-(propan-2-yl)phenyl]carbamoyl}-D-prolyl)amino]pyridin-2-yl}benzoic acid] | 86 nM |
| COc1cc(C(=O)O)ccc1-c1ccc(NC(=O)[C@H]2CCCN2C(=O)Nc2ccc(C(C)C)cc2)nc1 [Example 151, 3-methoxy-4-{6-[(1-{[4-(propan-2-yl)phenyl]carbamoyl}-D-prolyl)amino]pyridin-3-yl}benzoic acid] | 110 nM |
| CC(C)c1ccc(NC(=O)N2CCC[C@@H]2C(=O)Nc2ccc3cc(C(=O)O)ccc3c2)cc1F [Example 152, 6-[(1-{[3-fluoro-4-(propan-2-yl)phenyl]carbamoyl}-D-prolyl)amino]naphthalene-2-carboxylic acid] | 44 nM |
| O=C(O)c1ccc(-c2ccc(NC(=O)[C@H]3CCCN3C(=O)NCc3ccc(C(F)(F)F)cc3)nc2)cc1 [Example 153, 4-(6-{[1-({[4-(trifluoromethyl)phenyl]methyl}carbamoyl)-D-prolyl]amino}pyridin-3-yl)benzoic acid] | 11 nM |
| CC(C)c1ccc(NC(=O)N2C[C@H]3C[C@H]3[C@@H]2C(=O)Nc2ccc(-c3cccc(C(=O)O)c3)cc2)cc1 [Example 154, 4′-{[(1R,2R,5S)-3-{[4-(propan-2-yl)phenyl]carbamoyl}-3-azabicyclo[3.1.0]hexane-2-carbonyl]amino}[1,1′-biphenyl]-3-carboxylic acid] | 58 nM |
| O=C(O)c1ccc(-c2ccc(NC(=O)[C@H]3CCCN3C(=O)Nc3ccc(CC(F)(F)F)cc3)cc2)cc1 [Example 155, 4′-[(1-{[4-(2,2,2-trifluoroethyl)phenyl]carbamoyl}-D-prolyl)amino][1,1′-biphenyl]-4-carboxylic acid] | 22 nM |
| COc1cc(C(=O)O)ccc1-c1ccc(NC(=O)[C@H]2CCCN2C(=O)Nc2ccc(C(C)C)c(C)c2)nc1 [Example 156, 3-methoxy-4-{6-[(1-{[3-methyl-4-(propan-2-yl)phenyl]carbamoyl}-D-prolyl)amino]pyridin-3-yl}benzoic acid] | 45 nM |
| O=C(O)c1ccc(-c2ccc(NC(=O)[C@H]3CCCN3C(=O)NCc3ccc(C(F)(F)F)cc3)cc2)cc1 [Example 157, 4′-{[1-({[4-(trifluoromethyl)phenyl]methyl}carbamoyl)-D-prolyl]amino}[1,1′-biphenyl]-4-carboxylic acid] | 10 nM |
| COc1cc(-c2ccc(NC(=O)[C@H]3CCCN3C(=O)Nc3ccc(C(F)(F)F)c(C)c3)cc2)ccc1C(=O)O [Example 158, 3-methoxy-4′-[(1-{[3-methyl-4-(trifluoromethyl)phenyl]carbamoyl}-D-prolyl)amino][1,1′-biphenyl]-4-carboxylic acid] | 7.7 nM |
| CC(C)c1ccc(NC(=O)N2C[C@@H]3C[C@@H]3[C@@H]2C(=O)Nc2ccc(-c3cccc(C(=O)O)c3)cc2)cc1 [Example 159, 4′-{[(1S,2R,5R)-3-{[4-(propan-2-yl)phenyl]carbamoyl}-3-azabicyclo[3.1.0]hexane-2-carbonyl]amino}[1,1′-biphenyl]-3-carboxylic acid] | 110 nM |
| Cc1cc(NC(=O)[C@H]2CCCN2C(=O)Nc2ccc(C3CCC3)cc2)cnc1-c1ccc(C(=O)O)cc1 [Example 160, 4-[5-({1-[(4-cyclobutylphenyl)carbamoyl]-D-prolyl}amino)-3-methylpyridin-2-yl]benzoic acid] | 75 nM |
| O=C(O)c1ccc2cc(NC(=O)[C@H]3CCCN3C(=O)Nc3ccc(C(F)(F)F)cc3)ccc2c1 [Example 161, 6-[(1-{[4-(trifluoromethyl)phenyl]carbamoyl}-D-prolyl)amino]naphthalene-2-carboxylic acid] | 77 nM |
| Cc1cc(NC(=O)N2CCC[C@@H]2C(=O)Nc2ccc3cc(C(=O)O)ccc3c2)ccc1C(C)C [Example 162, 6-[(1-{[3-methyl-4-(propan-2-yl)phenyl]carbamoyl}-D-prolyl)amino]naphthalene-2-carboxylic acid] | 44 nM |
| Cc1cc(NC(=O)N2CCC[C@@H]2C(=O)Nc2ccc(-c3ccc(C(=O)O)cc3)nc2)ccc1C(F)(F)F [Example 163, 4-{5-[(1-{[3-methyl-4-(trifluoromethyl)phenyl]carbamoyl}-D-prolyl)amino]pyridin-2-yl}benzoic acid] | 19 nM |
| C[C@H](NC(=O)N1CCC[C@@H]1C(=O)Nc1ccc(-c2ccc(C(=O)O)cc2)cc1)c1ccc(C(F)(F)F)cc1 [Example 164, 4′-{[1-({(1S)-1-[4-(trifluoromethyl)phenyl]ethyl}carbamoyl)-D-prolyl]amino}[1,1′-biphenyl]-4-carboxylic acid] | 22 nM |
